Measurements from US20120270929A1, “MODULATION OF TTC39 EXPRESSION TO INCREASE HDL” (ISIS Pharmaceuticals, Inc., priority 2009, published 2012).
Oligonucleotides are written 5' to 3', each unit as a sugar letter and its base; * is a phosphorothioate linkage, no mark a phosphodiester; rarer units and linkages stand in square brackets, end groups in braces. Plain capitals give the bases only. e = 2'-O-(2-methoxyethyl) (MOE); [5mC] = 5-methylcytosine; d = 2'-deoxy (DNA)

Experiments:
murine TTC39C mRNA [1] = test: Dose-dependent antisense inhibition of murine TTC39C in mouse primary hepatocytes; assay type: cell-based; details: electroporation, ~16 h; for IC50: mouse primary hepatocytes
Procedure: Thirty antisense oligonucleotides were selected from the study described in Example 8 and further tested at various doses in mouse primary hepatocytes. Cells were plated at a density of 30,000 cells per well and transfected using electroporation with 500 nM, 1,000 nM, 2,000 nM, 4,000 nM, and 8,000 nM concentrations of antisense oligonucleotide, as specified in Table 30. After a treatment period of approximately 16 hours, RNA was isolated from the cells and TTC39C mRNA levels were measured by quantitative real-time PCR. Murine primer probe set RTS3266 was used to measure mRNA levels. TTC39C mRNA levels were adjusted according to total RNA content, as measured by RIBOGREEN®. Results are presented as percent inhibition of TTC39C, relative to untreated control cells.

murine TTC39C mRNA [2] = test: Antisense inhibition of mouse TTC39C in mouse primary hepatocytes, single dose; assay type: cell-based; details: 8,000 nM antisense oligonucleotide, electroporation, approximately 24 hours, TTC39C mRNA by real-time PCR (RTS3266), relative to untreated control cells
Procedure: Antisense oligonucleotides were designed targeting a TTC39C nucleic acid and were tested for their effects on TTC39C mRNA in vitro. Cultured mouse primary hepatocytes at a density of 30,000 cells per well were transfected by electroporation with 8,000 nM antisense oligonucleotide. After a treatment period of approximately 24 hours, RNA was isolated from the cells and TTC39C mRNA levels were measured by quantitative real-time PCR. Mouse primer probe set RTS3266 (forward sequence […], designated herein as SEQ ID NO: 140; reverse sequence […], designated herein as SEQ ID NO: 141; probe sequence […], designated herein as SEQ ID NO: 142). TTC39C mRNA levels were adjusted according to total RNA content, as measured by RIBOGREEN®. Results are presented as percent inhibition of TTC39C, relative to untreated control cells.
The chimeric antisense oligonucleotides targeting TTC39C were designed as 5-10-5 MOE gapmers. The gapmers are 20 nucleotides in length, wherein the central gap segment is comprised of ten 2′-deoxynucleotides and is flanked on both sides (in the 5′ and 3′ directions) by wings comprising five nucleotides each. Each nucleotide in the 5′ wing segment and each nucleotide in the 3′ wing segment has a 2′-MOE modification. The internucleoside linkages throughout each gapmer are phosphorothioate (P═S) linkages. All cytosine residues throughout each gapmer are 5-methylcytosines. “Mouse Target start site” indicates the 5′-most nucleotide to which the gapmer is targeted in the mouse gene sequence.

Substance	percent inhibition of TTC39C mRNA (murine TTC39C mRNA [1]; 500.0 nM)	percent inhibition of TTC39C mRNA (murine TTC39C mRNA [1]; 1000.0 nM)	percent inhibition of TTC39C mRNA (murine TTC39C mRNA [1]; 2000.0 nM)	percent inhibition of TTC39C mRNA (murine TTC39C mRNA [1]; 4000.0 nM)	percent inhibition of TTC39C mRNA (murine TTC39C mRNA [1]; 8000.0 nM)	IC50 (murine TTC39C mRNA [1])	% inhibition (murine TTC39C mRNA [2])
ISIS 474600: 5-10-5 MOE gapmer antisense oligonucleotide targeting murine TTC39C (antisense e[5mC]*e[5mC]*eA*eA*eG*dG*dG*d[5mC]*dT*d[5mC]*dT*dT*d[5mC]*d[5mC]*dG*eT*e[5mC]*eA*eG*e[5mC])	47%	57%	66%	86%	89%	600 nM	90%
ISIS 474610: 5-10-5 MOE gapmer antisense oligonucleotide targeting murine TTC39C (antisense eT*eT*eA*eA*eG*dA*dA*d[5mC]*dA*dA*dG*dT*dT*dG*dT*eG*e[5mC]*e[5mC]*e[5mC]*e[5mC])	10%	28%	38%	65%	71%	2800 nM	90%
ISIS 474515: 5-10-5 MOE gapmer antisense oligonucleotide targeting murine TTC39C (antisense eT*e[5mC]*e[5mC]*e[5mC]*eT*dG*dA*dA*dG*d[5mC]*d[5mC]*dG*dT*dT*dG*eT*eT*eG*eA*eG)	56%	62%	79%	91%	94%	–	96%
ISIS 474599: 5-10-5 MOE gapmer antisense oligonucleotide targeting murine TTC39C (antisense e[5mC]*eG*eT*eT*eG*dA*dT*dG*dT*d[5mC]*d[5mC]*dA*d[5mC]*dA*dT*eA*eG*e[5mC]*eA*e[5mC])	36%	59%	60%	84%	92%	900 nM	92%
ISIS 474543: 5-10-5 MOE gapmer antisense oligonucleotide targeting murine TTC39C (antisense e[5mC]*e[5mC]*eA*eG*eG*dT*dG*dG*d[5mC]*dT*dT*dT*dG*dG*d[5mC]*eT*eT*eG*eG*eG)	77%	88%	88%	88%	94%	–	98%
ISIS 474595: 5-10-5 MOE gapmer antisense oligonucleotide targeting murine TTC39C (antisense eG*eT*e[5mC]*eA*eT*d[5mC]*dG*d[5mC]*dA*d[5mC]*dG*d[5mC]*d[5mC]*dA*dA*e[5mC]*eT*eG*e[5mC]*eA)	80%	87%	95%	98%	98%	–	97%
ISIS 474613: 5-10-5 MOE gapmer antisense oligonucleotide targeting murine TTC39C (antisense eT*eG*e[5mC]*eT*eT*dT*dA*dA*dT*d[5mC]*d[5mC]*dA*dA*d[5mC]*dG*eA*e[5mC]*eA*eG*eA)	30%	33%	43%	65%	74%	2100 nM	90%
ISIS 474523: 5-10-5 MOE gapmer antisense oligonucleotide targeting murine TTC39C (antisense eG*eG*eT*e[5mC]*eA*d[5mC]*d[5mC]*d[5mC]*d[5mC]*dT*dT*d[5mC]*dG*dG*d[5mC]*e[5mC]*eA*e[5mC]*eA*eA)	72%	80%	94%	96%	97%	–	98%
ISIS 474516: 5-10-5 MOE gapmer antisense oligonucleotide targeting murine TTC39C (antisense eT*eT*eA*eG*eT*dG*dG*dA*d[5mC]*dT*dA*dT*dG*dA*dT*eT*eT*e[5mC]*eT*eG)	34%	61%	71%	88%	95%	800 nM	94%
ISIS 474596: 5-10-5 MOE gapmer antisense oligonucleotide targeting murine TTC39C (antisense e[5mC]*eG*eA*eT*eT*dA*d[5mC]*dA*d[5mC]*d[5mC]*dA*dG*d[5mC]*d[5mC]*dT*e[5mC]*eT*eT*e[5mC]*eA)	47%	65%	62%	90%	96%	600 nM	93%
ISIS 474598: 5-10-5 MOE gapmer antisense oligonucleotide targeting murine TTC39C (antisense e[5mC]*e[5mC]*e[5mC]*eA*e[5mC]*d[5mC]*dT*dT*dT*dT*dA*dT*dG*dT*dA*eG*eG*e[5mC]*e[5mC]*eG)	40%	37%	60%	83%	94%	1100 nM	94%
ISIS 474615: 5-10-5 MOE gapmer antisense oligonucleotide targeting murine TTC39C (antisense eG*eT*eA*e[5mC]*eG*dA*dG*dT*dT*dA*d[5mC]*dT*d[5mC]*dT*dG*e[5mC]*e[5mC]*eG*eA*e[5mC])	33%	43%	82%	92%	98%	900 nM	96%
ISIS 474521: 5-10-5 MOE gapmer antisense oligonucleotide targeting murine TTC39C (antisense eG*eG*e[5mC]*eT*eT*dT*d[5mC]*d[5mC]*dT*dA*dA*dG*dG*dA*dT*e[5mC]*e[5mC]*eA*e[5mC]*e[5mC])	46%	63%	84%	92%	97%	500 nM	97%
ISIS 474532: 5-10-5 MOE gapmer antisense oligonucleotide targeting murine TTC39C (antisense eG*eT*eT*eG*eT*dG*d[5mC]*d[5mC]*d[5mC]*d[5mC]*dA*dT*d[5mC]*d[5mC]*dA*e[5mC]*eA*eT*e[5mC]*eA)	51%	64%	84%	94%	97%	400 nM	99%
ISIS 474662: 5-10-5 MOE gapmer antisense oligonucleotide targeting murine TTC39C (antisense eG*eG*eA*eT*eT*dT*d[5mC]*d[5mC]*dG*dG*dG*d[5mC]*dA*dT*d[5mC]*eA*eA*e[5mC]*e[5mC]*eT)	28%	35%	65%	88%	94%	1300 nM	95%
ISIS 474535: 5-10-5 MOE gapmer antisense oligonucleotide targeting murine TTC39C (antisense eT*e[5mC]*e[5mC]*eA*e[5mC]*dT*dT*d[5mC]*dA*dT*dG*dG*d[5mC]*dA*dA*eG*e[5mC]*eT*eT*eG)	18%	35%	61%	83%	93%	1500 nM	96%
